# Legend:
# Conditions in all cases: 10 µM
# A549 cells = test system: A549 cells
# HIV-1/EBOV pseudovirus = test system: HIV-1/EBOV pseudovirus
# HIV-1/LASV pseudovirus = assay: microbe, parasite or virus in culture; format: cell-based
# HIV-1/H5N1 pseudovirus = assay: organism not typed; format: cell-based, influenza A virus A/Goose/Qinghai/59/05 (H5N1)
Compound,Cell Viability (A549 cells),Inhibition HIV/EBOV (HIV-1/EBOV pseudovirus),Inhibition HIV/LASV (HIV-1/LASV pseudovirus),Inhibition HIV/H5N1 (HIV-1/H5N1 pseudovirus)
CN(C)Cc1ccc(-c2cc3cc(Br)ccc3nc2OCc2cccc3ccccc23)cc1 [SYL1665],82.87%,99.92%,88.72%,84.24%
CN(C)Cc1cccc(-c2cc3cc(Br)ccc3nc2OCc2cccc(F)c2)c1 [SYL1666],81.28%,99.92%,91.03%,87.06%
COc1ccc2nc(OCc3cccc4ccccc34)c(-c3cccc(CN(C)C)c3)cc2c1 [SYL1667],83.17%,99.94%,85.91%,85.49%
COc1nc2ccccc2cc1C(O)(Cc1cccc(F)c1)c1ccccc1CN1CCOCC1 (stereo not shown) [SYL1668],79.06%,99.87%,86.46%,74.86%
CN1CCN(c2ccc(-c3cc4cc(Br)ccc4nc3OCc3cccc4ccccc34)cc2)CC1 [SYL1669],82.47%,99.94%,92.49%,96.42%
CN1CCN(Cc2ccc(-c3cc4cc(Br)ccc4nc3OCc3cccc4ccccc34)cc2)CC1 [SYL1670],82.37%,99.92%,77.77%,91.10%
CCN(CC)CCc1ccc(-c2cc3cc(Br)ccc3nc2OCc2cccc3ccccc23)cc1 [SYL1671],88.97%,99.87%,89.90%,92.36%
CNCCc1ccc(-c2cc3cc(Br)ccc3nc2OCc2cccc3ccccc23)cc1 [SYL1672],2.06%,99.85%,99.22%,98.01%
CN(C)Cc1ccc(-c2cc3cc(Br)ccc3nc2OCc2ccccc2)cc1 [SYL1675],88.37%,99.89%,91.37%,98.13%
CN(C)Cc1ccc(-c2cc3cc(Br)ccc3nc2Oc2ccccc2)cc1 [SYL1676],89.65%,71.19%,19.98%,36.23%
CN(C)C(=O)Cc1ccc(-c2cc3cc(Br)ccc3nc2OCc2cccc3ccccc23)cc1 [SYL1677],58.71%,90.04%,29.51%,15.95%
CN(C)Cc1ccc(-c2cc3cc(Br)ccc3nc2OCc2cccc3ccccc23)cc1F [SYL1678],122.25%,99.38%,97.25%,93.90%
CNCCNCc1ccc(-c2cc3cc(Br)ccc3nc2OCc2cccc3ccccc23)cc1 [SYL1679],117.07%,99.70%,97.63%,96.95%
CN(C)Cc1ccc(-c2cc3cc(Br)ccc3nc2OCc2cccc3ccccc23)c(F)c1 [SYL1682],84.09%,99.91%,94.69%,78.74%
C[N+](C)(C)Cc1ccc(-c2cc3cc(Br)ccc3nc2OCc2cccc3ccccc23)cc1.[I-] [SYL1685],103.42%,99.90%,93.29%,65.25%
Brc1ccc2nc(OCc3cccc4ccccc34)c(-c3ccc(N4CCCC4)cc3)cc2c1 [SYL1686],82.03%,99.92%,90.35%,65.78%

Compound,Cell Viability (A549 cells),Inhibition HIV/EBOV (HIV-1/EBOV pseudovirus),Inhibition HIV/LASV (HIV-1/LASV pseudovirus),Inhibition HIV/H5N1 (HIV-1/H5N1 pseudovirus)
CN1CCN(c2ccc(-c3cc4cc(Br)ccc4nc3OCc3cccc4ccccc34)cn2)CC1 [SYL1687],78.11%,99.94%,88.94%,31.90%
CN(C)CCN1CCN(Cc2ccc(-c3cc4cc(Br)ccc4nc3OCc3cccc4ccccc34)cc2)CC1 [SYL1688],80.00%,99.92%,88.12%,91.36%
COc1nc2ccc(Br)cc2cc1-c1ccc(CN(C)C)cc1 [SYL1689],78.79%,99.94%,88.23%,97.51%
CN(C)Cc1ccc(-c2cc3cc(Br)ccc3nc2OCc2ccc(-c3ccccc3)cc2)cc1 [SYL1690],80.30%,99.85%,86.95%,98.15%
Brc1ccc2nc(OCc3cccc4ccccc34)c(-c3ccc(Cn4ccnc4)cc3)cc2c1 [SYL1691],72.14%,92.17%,57.43%,97.25%
CN(C)c1ncc2cc(-c3cc4cc(Br)ccc4nc3OCc3cccc4ccccc34)ccc2n1 [SYL1692],87.98%,48.65%,11.86%,-2.23%
CN(C)Cc1ccc(-c2cc3cc(Br)ccc3nc2OCc2c(F)cccc2F)cc1 [SYL1693],3.19%,99.59%,99.04%,97.66%
CN(C)Cc1ccc(-c2cc3cc(Br)ccc3nc2OCc2ccncc2)cc1 [SYL1696],26.82%,99.25%,98.53%,97.45%
Brc1ccc2nc(OCc3cccc4ccccc34)c(-c3ccc(CN4CCN(Cc5ccccc5)CC4)cc3)cc2c1 [SYL1697],90.86%,67.57%,15.89%,-5.87%
CN(C)Cc1ccc(-c2cc3cc(Br)ccc3nc2Oc2ccc(OCc3ccccc3)cc2)cc1 [SYL1698],107.16%,99.64%,98.80%,97.44%
CN(C)Cc1ccc(-c2cc3cc(Br)ccc3nc2SCc2ccccc2)cc1 [SYL1699],105.32%,99.94%,93.73%,94.56%
CN(C)Cc1ccc(-c2cc3ccccc3nc2OCc2cccc3ccccc23)cc1 [SYL1701],88.01%,99.94%,97.96%,98.51%
COc1ccc2nc(OCc3cccc4ccccc34)c(-c3ccc(CN(C)C)cc3)cc2c1 [SYL1702],89.90%,99.95%,89.93%,87.31%
COc1ccccc1COc1nc2ccc(Br)cc2cc1-c1ccc(CN(C)C)cc1 [SYL1705],86.34%,99.76%,88.92%,59.98%
COc1ccc(COc2nc3ccc(Br)cc3cc2-c2ccc(CN(C)C)cc2)cc1 [SYL1706],82.99%,99.20%,87.40%,54.58%
